Results on three compounds are retold here after paper PMC6718988, “Bioactivity and Bactericidal Mechanism of Histidine-Rich β-Hairpin Peptide Against Gram-Negative Bacteria” (International Journal of Molecular Sciences, 2019).

In one data set the test system is Gram-negative bacteria. Nature of the data set: MICs against Gram-negative strains (geometric mean, range). The following applies: for geometric mean MIC: read-out: MBC (GM), geometric mean of MICs, Gram (−). The class given is cell-based. As for the experimental part: (§1) The minimum inhibitory concentration (MIC) was measured using a broth microdilution method to determine the in vitro antimicrobial activity of the peptides. Bacteria were inoculated into MHB and incubated overnight at 37 °C until the bacteria were in log phase growth. Next, we corrected the bacterial concentration to approximately 1 × 10^5 CFU/mL using MHB. The peptides were added to 96-well plates containing 0.01% acetic acid and 0.2% bovine serum albumin at final concentrations ranging from 0.25 to 128 μM. After incubation at 37 °C for 24 h, the absorbance was measured at 492 nm using a microplate reader (Tecan GENios F129004, Tecan, Austria). Broth containing microbes and […] were used as positive and negative controls, respectively. The lowest peptide concentration with no increase in absorbance compared to that of the negative control was defined as the MIC. The experiments were independently performed three times.

Data set [1] relates to methicillin-resistant S. aureus ATCC43300. The data set can be described thus: microbe, parasite or virus in culture. The note with it: ATCC43300, 24 h. As to the method:
as §1

The next data set relates to S. pullorum C7913. The data set can be described thus: microbe, parasite or virus in culture. As for the experimental part:
as §1

Another data set has as its system E. coli K99. Nature of the data set: microbe, parasite or virus in culture. As for the experimental part: as §1
Another data set has as its system E. coli UB1005. The data set can be described thus: microbe, parasite or virus in culture. The note with it: UB1005, 24 h. As to the method:
as §1

The subject of another data set is S. aureus ATCC29213. The data set can be described thus: microbe, parasite or virus in culture. The following applies: ATCC29213, 24 h. As for the experimental part:
as §1

Another data set deals with E. coli ATCC25922. The data set can be described thus: microbe, parasite or virus in culture. The note with it: ATCC25922, 24 h. As to the method: as §1
For another data set, the system named is P. aeruginosa ATCC27853. The data set can be described thus: microbe, parasite or virus in culture. The note with it: ATCC27853, 24 h. As to the method:
as §1

The subject of a further data set is E. coli K88. Nature of the data set: microbe, parasite or virus in culture. As for the experimental part: as §1
Another data set relates to S. epidermidis ATCC12228. The data set can be described thus: microbe, parasite or virus in culture. The note with it: ATCC12228, 24 h. As to the method: as §1
In data set [2] the test system is human red blood cells (hRBCs). The data set can be described thus: Hemolytic activity. The following applies: 1 h, OD 570 nm.
Procedure: Briefly, collected human red blood cells (hRBCs) were washed three times with PBS (pH 7.4) and diluted to 1% in PBS. Next, equal volumes of blood cells were mixed with different peptide concentrations in 96-well plates followed by incubated at 37 °C for 1 h. The mixtures were centrifuged (1000 g, 5 min), and the supernatants were transferred to 96-well plates to measure the optical density (OD) at 570 nm. Untreated blood cells were used as negative controls, and 0.1% Triton X-100-treated blood cells were used as positive controls. The minimum peptide concentration corresponding to 5% hemolytic activity was defined as the minimal hemolytic concentration (MHC). These assays were independently repeated three times.
A short description of data set [3]: RP-HPLC retention time as measure of hydrophobicity. The format is physicochemical. The note with it: analytical Kromasil C18 column 4.6 mm × 250 mm, 5.0 μm, acetonitrile, flow 1.0 mL/min, used as measure of hydrophobicity. As to the method:
The hydrophobicities of the peptides in solution were reliably mirrored by their high-performance liquid chromatography (HPLC)retention times. The retention times for peptide HI2, HW2, HV2, HF2, and PG-1 were 11.13, 10.55, 12.20, 18.06 and 12.56 min, respectively, indicating the following hydrophobic order: HF2 > PG-1 > HV2 > HI2 > HW2(Table 1).
The designed peptides were synthesized and purified by GL Biochem (Shanghai, China). Acetonitrile was used on an analytical Kromasil C18 column (4.6 mm × 250 mm, 5.0 μm, LC 3000, Beijing, China), and the purity of the peptides was determined to be greater than 95% via reversed-phase high-performance liquid chromatography (RP-HPLC) with a flow rate of 1.0 mL/min. The experimental molecular weights of the peptides were evaluated via ESI-MS analysis, and these values were very close to the calculated masses. Next, the peptides were dissolved in deionized water at a concentration of 2.56 mM, and the peptide solutions were stored at −20 °C.

The nature of data set [4]: LPS binding assay (BODIPY-TR-cadaverine displacement). On the set-up: species or system E. coli. The note with it: peptide concentration higher than 4 μM; 50 μg/mL LPS, 5 μg/mL BODIPY-TR cadaverine, Tris 50 mM pH 7.4; 100% = 10 μg/mL polymyxin B. As to the method:
The abilities of the antimicrobial peptides to bind LPS were determined using the fluorescent dye BODIPY-TR-cadaverine (BC) substitution method. LPS (50 μg/mL) from E. coli O111:B4 was incubated with BC (5 μg/mL) in Tris buffer (50 mm, pH 7.4) for 4 h. Next, 50 μL of various concentrations of peptides (final concentration of 1–64 μM) and 50 μL of LPS-BC mixture were added to 96-well plates, and the fluorescence was measured using a fluorescence spectrophotometer (Infinite 200 pro, Tecan, China) at an excitation wavelength of 580 nm and an emission wavelength of 620 nm. Each test was performed three times. The values were converted to %∆F (AU) using the following equation:%ΔF (AU) = [(Fobs − F0)/(F100 − F0)] × 100 where Fobs is the fluorescence value measured in the presence of the peptide, F0 is the initial fluorescence of LPS with BC without the addition of peptides, F100 is the fluorescence value produced by adding 10 μg/mL polymyxin B.

Data set [5] deals with Gram-positive and Gram-negative bacteria. The note with it: 24 h. As to the method:
as §1

For another data set, the system named is Gram-positive bacteria. The following applies: 24 h. As for the experimental part: as §1
Where [6] appears, read: Salmonella enterica, PULLORUM, 24 h.

In brackets after ≈: the same amount, converted by molar mass. Where a SMILES comes first, the peptide text is derived from it. [ ]: non-standard residue; d: D form.

For `CC(C)(O/N=C(\C(=O)N[C@@H]1C(=O)N2C(C(=O)[O-])=C(C[n+]3ccccc3)CS[C@H]12)c1csc(N)n1)C(=O)O` [Ceftazidime], in the data set on Gram-negative bacteria, the geometric mean MIC was 1.12 µM. Moreover, the MIC in [1] (Staphylococcus aureus) turned out to be 16 µM (≈ 8.75 µg/mL); against S. pullorum C7913 (setting [6]) it was 1 µM (≈ 0.547 µg/mL); with E. coli K99 (Escherichia coli, K99, 24 h), 0.5 µM (≈ 0.273 µg/mL); with E. coli UB1005 (Escherichia coli), 1 µM (≈ 0.547 µg/mL); in the data set on S. aureus ATCC29213 (Staphylococcus aureus) it was 16 µM (≈ 8.75 µg/mL); in the data set with E. coli ATCC25922 (Escherichia coli), 2 µM (≈ 1.09 µg/mL). Besides, the MIC with P. aeruginosa ATCC27853 (Pseudomonas aeruginosa) worked out at 2 µM (≈ 1.09 µg/mL); in the data set with E. coli K88 (Escherichia coli, K88, 24 h), 1 µM (≈ 0.547 µg/mL); with S. epidermidis ATCC12228 (Staphylococcus epidermidis) it was 16 µM (≈ 8.75 µg/mL).

Consider `CNC(C)C1CCC(N)C(OC2C(N)CC(N)C(OC3OCC(C)(O)C(NC)C3O)C2O)O1` (stereo not drawn) [Gentamicin], for which the geometric mean MIC in the data set on Gram-negative bacteria amounted to 0.79 µM. The MIC in data set [1] (Staphylococcus aureus) came to 8 µM (≈ 3.82 µg/mL); against S. pullorum C7913 (setting [6]), 1 µM (≈ 0.478 µg/mL); in the data set on E. coli K99 (Escherichia coli, K99, 24 h) it was 0.5 µM (≈ 0.239 µg/mL); against E. coli UB1005 (Escherichia coli), 0.5 µM (≈ 0.239 µg/mL); in the data set on S. aureus ATCC29213 (Staphylococcus aureus), 1 µM (≈ 0.478 µg/mL); against E. coli ATCC25922 (Escherichia coli), 1 µM (≈ 0.478 µg/mL). In addition, the MIC is 1 µM (≈ 0.478 µg/mL) in the data set with P. aeruginosa ATCC27853 (Pseudomonas aeruginosa); 1 µM (≈ 0.478 µg/mL) in the data set on E. coli K88 (Escherichia coli, K88, 24 h); 1 µM (≈ 0.478 µg/mL) with S. epidermidis ATCC12228 (Staphylococcus epidermidis).

Take `N=C(N)NCCC[C@H](NC(=O)[C@H](CCCNC(=N)N)NC(=O)[C@H](Cc1ccccc1)NC(=O)[C@H](Cc1c[nH]cn1)NC(=O)[C@H](Cc1ccccc1)NC(=O)[C@H](Cc1c[nH]cn1)NC(=O)[C@H](Cc1ccccc1)NC(=O)CNC(=O)[C@H]1CCCN1C(=O)[C@H](Cc1ccccc1)NC(=O)[C@H](Cc1c[nH]cn1)NC(=O)[C@H](Cc1ccccc1)NC(=O)[C@H](Cc1c[nH]cn1)NC(=O)[C@H](Cc1ccccc1)NC(=O)[C@H](CCCNC(=N)N)NC(=O)[C@@H](N)CCCNC(=N)N)C(N)=O` [HF2] (H-RRFHFHF[dP]GFHFHFRR-NH2; N-terminus assumed): the “MBC (GM), geometric mean of MICs, Gram (−)” value in the data set on Gram-negative bacteria (Gram-negative strains, 256 μM used where no activity at 128 μM) is 8.00 µM. Also, the hemolysis rate in data set [2] (at the highest concentration (128 μM), 1% hRBC in PBS, 37 °C, 0.1% Triton X-100 positive control) was 30.46%. Further, the “MHC, minimum hemolytic concentration” value in data set [2] (concentration causing 5% hemolysis of hRBC, 1% hRBC in PBS pH 7.4, 37 °C, repeated three times) is reported as 16 µM. Further, in [3], the “Retention Time” value amounted to 18.06 min. The “LPS binding ability relative to binding activity of polymyxin B” value in data set [4] is given as “higher than 60%”. For the same compound, in data set [5], the “MBC (GM), geometric mean of MICs, Gram (+,−)” value is 8.64 µM. Also, the “MBC (GM), geometric mean of MICs, Gram (+)” value against Gram-positive bacteria amounted to 10.08 µM. For the same compound, the MIC in [1] amounted to 4 µM (≈ 8.91 µg/mL); in the data set with S. pullorum C7913 (C7913, 24 h), 4 µM (≈ 8.91 µg/mL); with E. coli K99 (E. coli K99, MHB, about 1 × 10^5 CFU/mL, 37 °C, 24 h, three independent experiments), 4 µM (≈ 8.91 µg/mL); against E. coli UB1005, 8 µM (≈ 17.8 µg/mL); with S. aureus ATCC29213 it was 64 µM (≈ 143 µg/mL); in the data set with E. coli ATCC25922, 4 µM (≈ 8.91 µg/mL). The MIC against P. aeruginosa ATCC27853 is over 128 µM; against E. coli K88 (E. coli K88, MHB, about 1 × 10^5 CFU/mL, 37 °C, 24 h, three independent experiments), 2 µM (≈ 4.46 µg/mL); against S. epidermidis ATCC12228, 4 µM (≈ 8.91 µg/mL).
